In PubChem BioAssay (NCI):
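Grown in 96-well plates, cells were treated for 48 hours with each compound at five concentrations. Insufficient inhibition: endpoint recorded as highest concentration tested. TGI: concentration producing complete growth inhibition.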

Key:
Experiment in all cases: growth of human tumour cells (NCI), 48 h
[1] = tested on: CAKI-1 renal
[2] = tested on: RXF-631 renal
[3] = tested on: SNB-75 CNS
[4] = tested on: SK-OV-3 ovarian
[5] = tested on: HL-60(TB) leukemia
[6] = tested on: HCC-2998 colon
[7] = tested on: SK-MEL-28 melanoma
[8] = tested on: NCI-H23 lung
[9] = tested on: HOP-18 NSCLC
[10] = tested on: UACC-257 melanoma
[11] = tested on: SR leukemia
[12] = tested on: HOP-62 NSCLC
[13] = tested on: EKVX NSCLC
[14] = tested on: COLO 205 colon
[15] = tested on: SNB-19 CNS
[16] = tested on: 786-0 renal
[17] = tested on: SNB-78 CNS
[18] = tested on: RPMI-8226 leukemia
[19] = tested on: SF-268 CNS
[20] = tested on: MALME-3M melanoma
[21] = tested on: OVCAR-4 ovarian
[22] = tested on: KM20L2 colon
[23] = tested on: RXF 393 renal
[24] = tested on: LXFL 529 NSCLC
[25] = tested on: NCI-H460 lung
[26] = tested on: NCI-H226 lung
[27] = tested on: HCT-15 colon
[28] = tested on: SK-MEL-2 melanoma
[29] = tested on: SW-620 colon
[30] = tested on: DLD-1 colon
[31] = tested on: HT29 colon
[32] = tested on: TK-10 renal
[33] = tested on: CCRF-CEM leukemia
[34] = tested on: SF-295 CNS
[35] = tested on: U251 CNS
[36] = tested on: DMS 273 small cell lung
[37] = tested on: ACHN renal
[38] = tested on: UO-31 renal
[39] = tested on: HOP-92 NSCLC
[40] = tested on: K-562 leukemia
[41] = tested on: OVCAR-5 ovarian
[42] = tested on: NCI-H522 lung
[43] = tested on: OVCAR-3 ovarian
[44] = tested on: A498 renal
[45] = tested on: MOLT-4 leukemia
[46] = tested on: OVCAR-8 ovarian
[47] = tested on: HCT-116 colon
[48] = tested on: M14 melanoma
[49] = tested on: UACC-62 melanoma
[50] = tested on: DMS 114 small cell lung
[51] = tested on: M19-MEL melanoma
[52] = tested on: KM12 colon
[53] = tested on: LOX IMVI melanoma
[54] = tested on: A549 NSCLC
[55] = tested on: SN12C renal

CC(C)NC(=O)O/N=C1\CCC2[C@@H]3CC=C4C[C@@H](OC(=O)NC(C)C)CC[C@]4(C)C3CC[C@]12C (stereo not given in full) was tested. Which TGI [1] did it give?
Its TGI is 4.29 µM.

What about the TGI [2] of the same compound?
The TGI was 3.57 µM.

What about the TGI [3] of the same compound?
The TGI was 3.74 µM.

And the TGI [4]?
Its TGI is 13.5 µM.

And the TGI [5]?
Its TGI is 5.37 µM.

And the TGI [6]?
The TGI was 5.06 µM.

What about the TGI [7] of the same compound?
The TGI was 3.26 µM.

What about the TGI [8] of the same compound?
Its TGI is 3.79 µM.

What about the TGI [9] of the same compound?
The TGI was 4.67 µM.

And the TGI [10]?
The TGI was 2.4 µM.

What about the TGI [11] of the same compound?
The TGI was 7.69 µM.

What about the TGI [12] of the same compound?
Its TGI is greater than 34 µM.

And the TGI [13]?
Its TGI is 3.42 µM.

What about the TGI [14] of the same compound?
The TGI was 1.29 µM.

What about the TGI [15] of the same compound?
The TGI was 6.05 µM.

And the TGI [16]?
The TGI was 4.01 µM.

What about the TGI [17] of the same compound?
The TGI was 6.77 µM.

What about the TGI [18] of the same compound?
The TGI was 2.96 µM.

And the TGI [19]?
The TGI was 3.22 µM.

And the TGI [20]?
Its TGI is 0.983 µM.

What about the TGI [21] of the same compound?
Its TGI is 3.5 µM.

And the TGI [22]?
Its TGI is 9.59 µM.

And the TGI [23]?
The TGI was 3.54 µM.

What about the TGI [24] of the same compound?
The TGI was 2.13 µM.

And the TGI [25]?
Its TGI is 3.06 µM.

What about the TGI [26] of the same compound?
Its TGI is greater than 100 µM.

And the TGI [27]?
Its TGI is 3.08 µM.

What about the TGI [28] of the same compound?
Its TGI is 2.9 µM.

And the TGI [29]?
The TGI was 3.72 µM.

What about the TGI [30] of the same compound?
The TGI was greater than 25.3 µM.

What about the TGI [31] of the same compound?
Its TGI is 8.87 µM.

And the TGI [32]?
Its TGI is 3.15 µM.

And the TGI [33]?
Its TGI is 5.03 µM.

And the TGI [34]?
Its TGI is 7.67 µM.

What about the TGI [35] of the same compound?
Its TGI is 2.8 µM.

What about the TGI [36] of the same compound?
Its TGI is 2.82 µM.

What about the TGI [37] of the same compound?
The TGI was 2.17 µM.

And the TGI [38]?
Its TGI is 2.3 µM.

And the TGI [39]?
Its TGI is 5.02 µM.

And the TGI [40]?
Its TGI is 5.85 µM.

What about the TGI [41] of the same compound?
The TGI was 4.26 µM.

What about the TGI [42] of the same compound?
Its TGI is 3.4 µM.

And the TGI [43]?
The TGI was 3.6 µM.

And the TGI [44]?
The TGI was greater than 30.3 µM.

And the TGI [45]?
Its TGI is 4.81 µM.

What about the TGI [46] of the same compound?
The TGI was 3.75 µM.

What about the TGI [47] of the same compound?
The TGI was 4.94 µM.

What about the TGI [48] of the same compound?
Its TGI is 1.95 µM.

What about the TGI [49] of the same compound?
Its TGI is 3.18 µM.

And the TGI [50]?
The TGI was 1.98 µM.

What about the TGI [51] of the same compound?
Its TGI is 2.81 µM.

What about the TGI [52] of the same compound?
The TGI was 3.73 µM.

And the TGI [53]?
The TGI was 2.27 µM.

What about the TGI [54] of the same compound?
Its TGI is 5.11 µM.

And the TGI [55]?
The TGI was 3.14 µM.
